Test results taken from patent publication US20040147458A1, “Compositions to reduce exercise-induced swelling of joints” (priority 2003, published 2004).

What was measured:
[1] = tested on: Standard Bred horses; experiment: Joint swelling after racing in Standard Bred horses given ribose before and/or after each race; format: in vivo, horse
From the text: The dosage given should be adjusted carefully to each animal. It has been observed that the swelling reaction is variable; some horses have a great deal of swelling after each race and others are less affected. […] Beginning with a dose of 20 gm ribose, the dosages were adjusted upward. […] Although the weight of the horse was not a factor, the state of nourishment was important. Less well-nourished horses require less ribose for the prophylaxis and therapy of joint swelling. In those horses tested by Applicant, which had been maintained on the ribose-containing supplement, it was seen that a dosage of about 100 or 200 grams of ribose was required to prevent or reduce swelling. In all mammals it may be seen that increasing doses of ribose are necessary to provide the benefit of this invention. This seeming paradox may be due to the fact that mammals receiving ribose as a maintenance dietary supplement have more energy, run faster and thus sustain more acute exercise-related trauma to the joints. It must be stressed that whether or not horses are maintained on a ribose-containing dietary supplement such as that of Applicant, in order to obtain the benefits of this invention, the dosage and timing disclosed above must be followed. Twelve Standard Bred horses, three to eight years of age, were tested. […] The swelling was treated either with cold packs or rest. Time to recovery was approximately one hour to several days. In general, the horses were rested for three days and then exercised by jogging each day, running two miles and then increasing the miles to six to eight. The test horses were put on a schedule of ribose administration in a dosage of 40 gm before each race. […] Therefore, the standard procedure was to administer the optimal dose of ribose both before and after each race. […] Time to recovery of these animals was about ten hours. […] After the horses had been on ribose maintenance for a time, all required higher doses of ribose, up to 100 gm a dose given both before and after racing, in order to show a benefit.

[2] = tested on: Racing dogs, generally greyhounds; experiment: Joint swelling after racing in racing dogs given ribose before the race; format: in vivo, dog
Method: Racing dogs, generally greyhounds, are also susceptible to swollen joints after racing. […] The observed dosage for a horse was approximately 100 to 300 mg per kilogram body weight. Based on this observation, a greyhound weighing 65 pounds will benefit from a dose of about two to twelve grams of ribose which is approximately 65 to 300 mg per kilogram. The dosage should be given just before each race or hard workout. […] Administration can be by any convenient means. Ribose has a slightly sweet taste and dogs will readily drink a solution of ribose in water. Alternatively, the ribose solution can be sprayed into the dog's mouth for buccal absorption. […] As for horses, the ribose should not be given more than half an hour before the race or with other food or anything else that would delay absorption.

[3] = tested on: Humans; experiment: Swollen, sore knee joints in human subjects taking ribose; format: in vivo
From the text: Non-runners can also experience swelling in the joints. One subject who works in construction and does a lot of lifting frequently has swollen knees with accompanying soreness. […] A heavy equipment operator has suffered from soreness in their knees for several years following an injury to the joint. […] The third subject is a competitive “strong man” who competes in such trials as lifting heavy rocks and pulling buses. In the course of their training and competition, they have stressed their knee joints, which are frequently swollen and sore. […] On one occasion, they ingested a dose of 30 grams of ribose and the soreness in their knees disappeared within twenty minutes.

Compound: O=C[C@H](O)[C@H](O)[C@H](O)CO [ribose, D-Ribose]
- joint swelling after race ([1]; 40 gm ribose before each race only, twelve horses): most of the animals still showed some joint swelling
- time to recovery ([1]; animals with moderate swelling despite ribose before and after race, cold packs applied): about ten
- resumption of training ([1]; compared with animals not given ribose before and after racing): able to resume training earlier
- benefit on swelling, ribose alone ([1]; easily absorbed dose of ribose alone given immediately before and immediately after each race): additional benefit was seen
- dose required to show a benefit ([1]; horses on ribose maintenance for a time, dose given both before and after racing): up to 100 gm
- joint swelling after race ([1]; optimal dose of ribose both before and after each race): the majority of the animals showed no swelling
- fraction of animals showing moderate swelling ([1]; optimal dose of ribose both before and after each race, cold packs applied): About one-third
- side-effects ([1]; ribose at suggested levels): no side-effects
- attitude of the horses after a race (subjective measure) ([1]; ribose given only before the race): willing to play and move around their stalls
- prevention or reduction of joint swelling ([2]; high dose before the race only): adequate in most cases to prevent or reduce joint swelling
- expected benefit on swollen joints after racing ([2]; proper dosage of ribose, about two to twelve grams for a 65 pound greyhound): expected to give the same benefit as is shown for horses
- symptoms of swollen and sore knee joints ([3]; competitive strong man, doses of five to ten grams): symptoms are lessened
- time until soreness in knees disappeared ([3]; competitive strong man, single dose of 30 grams): twenty
- knee soreness ([3]; construction worker with swollen knees, dose of about five grams): soreness subsides
- knee achiness ([3]; heavy equipment operator, soreness after joint injury, five gram dose): effective to lessen the achiness
